Source: patent US8299048B2, “Hexahydrocyclopentyl[f]indazole sulfonamides and derivatives thereof as selective glucocorticoid receptor modulators” (Merck Sharp & Dohme Corp., priority 2008, dated 2012)
Like-named read-outs stand apart in the source and are kept apart here.

Molecular target: T1, human GR (Homo sapiens, UniProt P04150)
T1 sequence (P04150 1-777): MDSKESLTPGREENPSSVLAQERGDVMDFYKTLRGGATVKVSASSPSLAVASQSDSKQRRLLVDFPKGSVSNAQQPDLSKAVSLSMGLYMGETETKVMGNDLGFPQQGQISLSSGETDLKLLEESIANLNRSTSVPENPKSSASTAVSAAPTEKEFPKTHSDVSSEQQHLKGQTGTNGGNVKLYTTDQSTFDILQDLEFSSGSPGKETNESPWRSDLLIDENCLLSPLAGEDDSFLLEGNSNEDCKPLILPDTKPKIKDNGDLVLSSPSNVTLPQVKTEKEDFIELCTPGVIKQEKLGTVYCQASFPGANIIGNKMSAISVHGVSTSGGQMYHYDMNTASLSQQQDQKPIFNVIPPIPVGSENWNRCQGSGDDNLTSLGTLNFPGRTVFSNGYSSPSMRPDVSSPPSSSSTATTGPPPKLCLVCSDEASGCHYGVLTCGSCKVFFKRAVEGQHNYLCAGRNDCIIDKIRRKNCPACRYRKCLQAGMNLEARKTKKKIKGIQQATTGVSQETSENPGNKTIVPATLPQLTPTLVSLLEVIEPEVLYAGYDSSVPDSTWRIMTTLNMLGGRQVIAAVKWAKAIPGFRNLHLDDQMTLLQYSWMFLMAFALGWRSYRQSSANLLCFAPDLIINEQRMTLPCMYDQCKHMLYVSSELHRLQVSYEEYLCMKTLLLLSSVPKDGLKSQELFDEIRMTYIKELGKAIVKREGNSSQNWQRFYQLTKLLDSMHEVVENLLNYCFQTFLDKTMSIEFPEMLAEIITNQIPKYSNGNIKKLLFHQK
Experiment: Transrepression Assay (GITAR), TNFα-β-lactamase reporter in U937 cells
Assay type: cell-based
Set-up: U937 cells contain an endogenous glucocorticoid receptor (GR); endogenous in cells; host or cells: U937 cells stably transfected with the TNF-alpha promoter/beta-lactamase reporter
Details: for GITAR > GRAMM % SEP: GITAR Emax minus GRAMMER Emax; for EC50: U937 cells, inflection point, read-out: Transrepression U937 Cells GITAR IP
Method in brief: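 Stable TNF-α-promoter/β-lactamase U937 line, endogenous GR; 50,000 cells/well. Cmpd 30–45 min 37 °C → PMA 5 ng/ml + LPS 100 ng/ml final, 37 °C ~18 hr → CCF2-AM 70–90 min RT. 100 nM dex = 100%.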

[1] = U-937, U937 cells, maximum activity, read-out: Transrepression U937 Cells GITAR Emax
[2] = U-937, activity repressed by 100 nM dexamethasone alone set as 100%, read-out: maximal activity in the transrepression (GITAR) assay

| SMILES | GITAR > GRAMM % SEP [%] | EC50 [nM] | Emax [1] [%] | Emax [2] [%] |
| --- | --- | --- | --- | --- |
| Cc1cc(S(=O)(=O)N(CCO)C[C@H]2CCC3=Cc4c(cnn4-c4ccc(F)cc4)C[C@@]32C)c(C)o1 [Example 66, N-{[(4αR,5S)-1-(4-fluorophenyl)-4α-methyl-1,4,4α,5,6,7-hexahydrocyclopenta[f]indazol-5-yl]methyl}-N-(2-hydroxyethyl)-2,5-dimethylfuran-3-sulfonamide] | 19.2 | 929 | 24.5 | > 5 |
| CC(C1CCC2=Cc3c(cnn3-c3ccc(F)cc3)C[C@@]21C)N(CCc1ccccc1F)S(=O)(=O)CC(F)(F)F (stereo partly drawn) [Example 93, 2,2,2-trifluoro-N-[2-(2-fluorophenyl)ethyl]-N-{1-[(4αR)-1-(4-fluorophenyl)-4α-methyl-1,4,4α,5,6,7-hexahydrocyclopenta[f]indazol-5-yl]ethyl}ethanesulfonamide] | 20.8 | 231 | 71.8 | > 5 |
| C[C@]12Cc3cnn(-c4ccc(F)cc4)c3C=C1CC[C@@H]2CN(CCO)S(=O)(=O)c1ccc(Oc2ccccn2)cc1 [Example 74, N-{[(4αR,5S)-1-(4-fluorophenyl)-4α-methyl-1,4,4α,5,6,7-hexahydrocyclopenta[f]indazol-5-yl]methyl}-N-(2-hydroxyethyl)-4-(pyridin-2-yloxy)benzenesulfonamide] | 9.9 | 1140 | 44.1 | > 5 |
| C[C@]12Cc3cnn(-c4ccc(F)cc4)c3C=C1CC[C@@H]2CN(CCO)S(=O)(=O)c1ccccc1C(F)(F)F [Example 70, N-{[(4αR,5S)-1-(4-fluorophenyl)-4α-methyl-1,4,4α,5,6,7-hexahydrocyclopenta[f]indazol-5-yl]methyl}-N-(2-hydroxyethyl)-2-(trifluoromethyl)benzenesulfonamide] | 15.1 | 1010 | 40.8 | > 5 |
| C[C@]12Cc3cnn(-c4ccc(F)cc4)c3C=C1CC[C@@H]2CN(CCc1ccccc1F)S(=O)(=O)c1ccccc1F [Example 86, 2-fluoro-N-[2-(2-fluorophenyl)ethyl]-N-{[(4αR,5S)-1-(4-fluorophenyl)-4α-methyl-1,4,4α,5,6,7-hexahydrocyclopenta[f]indazol-5-yl]methyl}benzenesulfonamide] | 12.4 | 262 | 80.6 | > 5 |
| C[C@]12Cc3cnn(-c4ccc(F)cc4)c3C=C1CC[C@@H]2CN(CCO)S(=O)(=O)c1ccc(F)cc1F [Example 82, 2,4-difluoro-N-{[(4αR,5S)-1-(4-fluorophenyl)-4α-methyl-1,4,4α,5,6,7-hexahydrocyclopenta[f]indazol-5-yl]methyl}-N-(2-hydroxyethyl)benzenesulfonamide] | 29.1 | 220 | 90.2 | > 5 |
| C[C@]12Cc3cnn(-c4ccc(F)cc4)c3C=C1CC[C@@H]2CN(CCO)S(=O)(=O)c1cccc(C#N)c1 [Example 68, 3-cyano-N-{[(4αR,5S)-1-(4-fluorophenyl)-4α-methyl-1,4,4α,5,6,7-hexahydrocyclopenta[f]indazol-5-yl]methyl}-N-(2-hydroxyethyl)benezenesulfonamide] | 22.9 | 757 | 32.9 | > 5 |
| C[C@]12Cc3cnn(-c4ccc(F)cc4)c3C=C1CC[C@@H]2CN(CCO)S(=O)(=O)c1ccccc1-c1ccccc1 [Example 84, N-{[(4αR,5S)-1-(4-fluorophenyl)-4α-methyl-1,4,4α,5,6,7-hexahydrocyclopenta[f]indazol-5-yl]methyl}-N-(2-hydroxyethyl)biphenyl-2-sulfonamide] | 66.3 | 799 | 86 | > 5 |
| C[C@]12Cc3cnn(-c4ccc(F)cc4)c3C=C1CC[C@@H]2CN(CCO)S(=O)(=O)c1ccccc1Cl [Example 81, 2-chloro-N-{[(4αR,5S)-1-(4-fluorophenyl)-4α-methyl-1,4,4α,5,6,7-hexahydrocyclopenta[f]indazol-5-yl]methyl}-N-(2-hydroxyethyl)benzenesulfonamide] | 59.5 | 959 | 76.7 | > 5 |
| C[C@]12Cc3cnn(-c4ccc(F)cc4)c3C=C1CC[C@@H]2CN(CCO)S(=O)(=O)c1ccc(Oc2ccccc2)cc1 [Example 79, N-{[(4αR,5S)-1-(4-fluorophenyl)-4α-methyl-1,4,4α,5,6,7-hexahydrocyclopenta[f]indazol-5-yl]methyl}-N-(2-hydroxyethyl)-4-phenoxybenzenesulfonamide] | 64.3 | 1950 | 71.8 | > 5 |
| C[C@]12Cc3cnn(-c4ccc(F)cc4)c3C=C1CC[C@@H]2CN(CCc1ccccc1F)S(=O)(=O)CC(F)(F)F [Example 89, 2,2,2-trifluoro-N-[2-(2-fluorophenyl)ethyl]-N-{[(4αR,5S)-1-(4-fluorophenyl)-4α-methyl-1,4,4α,5,6,7-hexahydrocyclopenta[f]indazol-5-yl]methyl}ethanesulfonamide] | 14.3 | 138 | 95.6 | > 5 |
| C[C@]12Cc3cnn(-c4ccc(F)cc4)c3C=C1CC[C@@H]2CN(CCO)S(=O)(=O)c1ccc(Oc2cccc(Cl)c2C#N)cc1 [Example 69, 4-(3-chloro-2-cyanophenoxy)-N-{[(4αR,5S)-1-(4-fluorophenyl)-4α-methyl-1,4,4α,5,6,7-hexahydrocyclopenta[f]indazol-5-yl]methyl}-N-(2-hydroxyethyl)benzenesulfonamide] | 22.2 | 2540 | 34.8 | > 5 |
| Cn1cc(S(=O)(=O)N(CCO)C[C@H]2CCC3=Cc4c(cnn4-c4ccc(F)cc4)C[C@@]32C)c(C(F)(F)F)n1 [Example 65, N-{[(4αR,5S)-1-(4-fluorophenyl)-4α-methyl-1,4,4α,5,6,7-hexahydrocyclopenta[f]indazol-5-yl]methyl}-N-(2-hydroxyethyl)-1-methyl-3-(trifluoromethyl)-1H-pyrazole-4-sulfonamide] | 41.3 | 894 | 61 | > 5 |
| C[C@]12Cc3cnn(-c4ccc(F)cc4)c3C=C1CC[C@@H]2CN(CCO)S(=O)(=O)c1ccccc1C#N [Example 78, 2-cyano-N-{[(4αR,5S)-1-(4-fluorophenyl)-4α-methyl-1,4,4α,5,6,7-hexahydrocyclopenta[f]indazol-5-yl]methyl}-N-(2-hydroxyethyl)benzenesulfonamide] | 15.9 | 883 | 66.5 | > 5 |
| Cc1noc(C)c1S(=O)(=O)N(CCO)C[C@H]1CCC2=Cc3c(cnn3-c3ccc(F)cc3)C[C@@]21C [Example 71, N-{[(4αR,5S)-1-(4-fluorophenyl)-4α-methyl-1,4,4α,5,6,7-hexahydrocyclopenta[f]indazol-5-yl]methyl}-N-(2-hydroxyethyl)-3,5-dimethylisoxazole-4-sulfonamide] | 19.2 | 302 | 82.3 | > 5 |
| C=CCN(C[C@H]1CCC2=Cc3c(cnn3-c3ccc(F)cc3)C[C@@]21C)S(=O)(=O)c1ccccc1F [Example 3, N-allyl-2-fluoro-N-{[(4αR,5S)-1-(4-fluorophenyl)-4α-methyl-1,4,4α,5,6,7-hexahydrocyclopenta[f]indazol-5-yl]methyl}benzenesulfonamide] | – | 407 | 65.1 | > 5 |
| COc1ccccc1CCN(C[C@H]1CCC2=Cc3c(cnn3-c3ccc(F)cc3)C[C@@]21C)S(=O)(=O)c1ccccc1F [Example 90, 2-fluoro-N-{[(4αR,5S)-1-(4-fluorophenyl)-4α-methyl-1,4,4α,5,6,7-hexahydrocyclopenta[f]indazol-5-yl]methyl}-N-[2-(2-methoxyphenyl)ethyl]benzenesulfonamide] | 34.0 | 651 | 67.6 | > 5 |
| C[C@]12Cc3cnn(-c4ccc(F)cc4)c3C=C1CC[C@@H]2CN(CCO)S(=O)(=O)Cc1cccc(C(F)(F)F)c1 [Example 63, N-{[(4αR,5S)-1-(4-fluorophenyl)-4α-methyl-1,4,4α,5,6,7-hexahydrocyclopenta[f]indazol-5-yl]methyl}-N-(2-hydroxyethyl)-1-[3-(trifluoromethyl)phenyl]methanesulfonamide] | 9.9 | 404 | 12 | > 5 |
